Data published in PubChem BioAssay (NCI).
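All cell lines were grown in 96-well plates and treated with compound for 48 hours. TGI marks complete inhibition of growth.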

Tests used:
Test in all cases: growth of human tumour cells (NCI), 48 h
SF-539 CNS = tested on: SF-539 CNS
M14 melanoma = tested on: M14 melanoma
DU-145 prostate = tested on: DU-145 prostate
SF-295 CNS = tested on: SF-295 CNS
SK-OV-3 ovarian = tested on: SK-OV-3 ovarian
OVCAR-4 ovarian = tested on: OVCAR-4 ovarian
KM12 colon = tested on: KM12 colon
A498 renal = tested on: A498 renal
SK-MEL-2 melanoma = tested on: SK-MEL-2 melanoma
HCT-15 colon = tested on: HCT-15 colon
NCI/ADR-RES ovarian = tested on: NCI/ADR-RES ovarian
MCF7 breast = tested on: MCF7 breast
CAKI-1 renal = tested on: CAKI-1 renal
SK-MEL-5 melanoma = tested on: SK-MEL-5 melanoma
NCI-H522 lung = tested on: NCI-H522 lung
SW-620 colon = tested on: SW-620 colon
BT-549 breast = tested on: BT-549 breast
HOP-62 NSCLC = tested on: HOP-62 NSCLC
K-562 leukemia = tested on: K-562 leukemia
OVCAR-8 ovarian = tested on: OVCAR-8 ovarian

Compound | TGI (SF-539 CNS) [µM] | TGI (M14 melanoma) [µM] | TGI (DU-145 prostate) [µM] | TGI (SF-295 CNS) [µM] | TGI (SK-OV-3 ovarian) [µM] | TGI (OVCAR-4 ovarian) [µM] | TGI (KM12 colon) [µM] | TGI (A498 renal) [µM] | TGI (SK-MEL-2 melanoma) [µM] | TGI (HCT-15 colon) [µM] | TGI (NCI/ADR-RES ovarian) [µM] | TGI (MCF7 breast) [µM] | TGI (CAKI-1 renal) [µM] | TGI (SK-MEL-5 melanoma) [µM] | TGI (NCI-H522 lung) [µM] | TGI (SW-620 colon) [µM] | TGI (BT-549 breast) [µM] | TGI (HOP-62 NSCLC) [µM] | TGI (K-562 leukemia) [µM] | TGI (OVCAR-8 ovarian) [µM]
CC1=CCC(C)=Nc2nc3ccccc3n21 | > 100 | > 100 | > 100 | > 100 | > 100 | > 100 | > 100 | > 100 | > 100 | > 100 | > 100 | > 100 | > 100 | > 100 | > 100 | > 100 | > 100 | > 100 | > 100 | > 100
COC(=O)C1=C(C(=O)Nc2cccnc2Cl)N(c2ccc(OC)cc2[N+](=O)[O-])C(c2ccc(C)cc2)=CC1c1ccc(OC)cc1OC (stereo not given) | 16.7 | > 72.5 | > 90.1 | > 100 | 62.9 | > 100 | 16.3 | 50.6 | 65 | 49.8 | 47.5 | 22.4 | > 100 | > 73.3 | 26.3 | 22.7 | > 100 | 68 | > 100 | 31.1
COC(=O)[C@H](Cc1c[nH]c2ccccc12)NC(=O)c1ccc(CNC(=O)/C(C)=C/c2ccccc2)cc1 | > 100 | 30.1 | > 100 | > 100 | > 100 | > 100 | > 100 | 64.2 | 27.2 | > 100 | > 100 | > 100 | > 100 | 33.2 | 62.8 | > 100 | > 100 | > 100 | > 100 | > 100
Cc1cc(C)c(C[C@H]2COC(=O)[C@]2(O)Cc2c(C)cc(C)cc2C)c(C)c1 | 74.4 | 36.3 | 31.9 | 34.1 | 34.2 | 28.3 | 37.1 | 30.9 | 40.2 | 36.2 | 39.1 | 34 | 34.6 | 39.6 | 34.4 | 53.8 | 35.2 | 35.8 | > 100 | 45.2
CN(C)CC1CCC/C(=C\c2ccc(Cl)cc2)C1=O (stereo not given) | 29.1 | 6.15 | 29.1 | 29.2 | 23.2 | 8.94 | 3.46 | 31.1 | 2.05 | 4.86 | 18.9 | 3.38 | 3.72 | 12.3 | 3.27 | 4.08 | 3.45 | 34.2 | 4.89 | 17.4
COc1ccc(OC)c(C(Cc2ccnc3ccccc23)Cc2ccnc3ccccc23)c1 | > 10 | > 10 | > 10 | > 10 | > 10 | > 10 | > 10 | > 10 | > 10 | > 10 | > 10 | > 10 | > 10 | > 10 | > 10 | > 10 | > 10 | > 10 | > 10 | > 10
